Test results as given in PubChem BioAssay AID1963835 (Molecular Pharmacology Branch, DTP, NCI, 2024).

Test system: 699152-130-R-J1-PDC complex spheroid viability
Experiment: Anticancer human tumor 699152-130-R-J1-PDC patient-derived pancreatic carcinoma cell line growth inhibition [POLQ]
Conditions: for IC50: curve of first compound; for viability, T/C: stronger effect = lower value
Procedure, shortened: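 PDC + HUVEC + MSC complex spheroids; POLQ inhibitors ± partner drugs; top conc. at/near clinical Cmax, else 10 microM (SN-38 1 microM), half-log dilutions; 37 degrees C, 5% CO2.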

[1] = second compound 0.0316 µM, first compound 0.0316 µM
[2] = second compound 0.0316 µM, first compound 0.1 µM
[3] = second compound 0.1 µM, first compound 0.0316 µM
[4] = second compound 0.1 µM, first compound 0.1 µM
[5] = second compound 0.316 µM, first compound 0.0316 µM
[6] = second compound 0.316 µM, first compound 0.1 µM
[7] = second compound 1 µM, first compound 0.0316 µM
[8] = second compound 1 µM, first compound 0.1 µM
[9] = second compound 3.16 µM, first compound 0.0316 µM
[10] = second compound 3.16 µM, first compound 0.1 µM
[11] = second compound 10 µM, first compound 0.0316 µM
[12] = second compound 10 µM, first compound 0.1 µM
[13] = second compound 0.0316 µM, first compound 0.316 µM
[14] = second compound 0.0316 µM, first compound 1 µM
[15] = second compound 0.0316 µM, first compound 3.16 µM
[16] = second compound 0.0316 µM, first compound 10 µM
[17] = second compound 0.1 µM, first compound 0.316 µM
[18] = second compound 0.1 µM, first compound 1 µM
[19] = second compound 0.1 µM, first compound 3.16 µM
[20] = second compound 0.1 µM, first compound 10 µM
[21] = second compound 0.316 µM, first compound 0.316 µM
[22] = second compound 0.316 µM, first compound 1 µM
[23] = second compound 0.316 µM, first compound 3.16 µM
[24] = second compound 0.316 µM, first compound 10 µM
[25] = second compound 1 µM, first compound 0.316 µM
[26] = second compound 1 µM, first compound 1 µM
[27] = second compound 1 µM, first compound 3.16 µM
[28] = second compound 1 µM, first compound 10 µM
[29] = second compound 3.16 µM, first compound 0.316 µM
[30] = second compound 3.16 µM, first compound 1 µM
[31] = second compound 3.16 µM, first compound 3.16 µM
[32] = second compound 3.16 µM, first compound 10 µM
[33] = second compound 10 µM, first compound 0.316 µM
[34] = second compound 10 µM, first compound 1 µM
[35] = second compound 10 µM, first compound 3.16 µM
[36] = second compound 10 µM, first compound 10 µM
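Further: spheroids exposed to agents for 7 days before viability reading.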
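Wherever viability, T/C is given: percent of DMSO vehicle control viability so 100% = vehicle and 0% = no viable signal.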

`Cn1ncnc1[C@H]1c2n[nH]c(=O)c3cc(F)cc(c23)N[C@@H]1c1ccc(F)cc1` + Nc1ccc(C#CCN(C(=O)Cc2ncc(C(F)(F)F)cc2C(F)(F)F)c2ccc(F)cc2)nn1 was tested, and the IC50 (second compound 0.0316 µM) was > 0.1 µM, the IC50 (second compound 0.1 µM) was > 0.1 µM and the IC50 (second compound 0.316 µM) was > 0.1 µM. For the same compound, the IC50 (second compound 1 µM) was > 0.1 µM, the IC50 (second compound 3.16 µM) was > 0.1 µM and the IC50 (second compound 10 µM) was > 0.1 µM. It also gave a viability, T/C (second compound 0.0316 µM, first compound 0.000316 µM) of 102%, a viability, T/C (second compound 0.0316 µM, first compound 0.001 µM) of 86.8% and a viability, T/C (second compound 0.0316 µM, first compound 0.00316 µM) of 89.6%. For the same compound, the viability, T/C (second compound 0.0316 µM, first compound 0.01 µM) was 97.1%, the viability, T/C [1] was 87% and the viability, T/C [2] was 82.2%. It also gave a viability, T/C (second compound 0.1 µM, first compound 0.000316 µM) of 106%, a viability, T/C (second compound 0.1 µM, first compound 0.001 µM) of 89.1% and a viability, T/C (second compound 0.1 µM, first compound 0.00316 µM) of 87.5%. For the same compound, the viability, T/C (second compound 0.1 µM, first compound 0.01 µM) was 101%, the viability, T/C [3] was 96% and the viability, T/C [4] was 82.8%. It also gave a viability, T/C (second compound 0.316 µM, first compound 0.000316 µM) of 102%, a viability, T/C (second compound 0.316 µM, first compound 0.001 µM) of 91.6% and a viability, T/C (second compound 0.316 µM, first compound 0.00316 µM) of 103%. The viability, T/C (second compound 0.316 µM, first compound 0.01 µM) was 85.4%, the viability, T/C [5] was 92.6% and the viability, T/C [6] was 77.5%. The viability, T/C (second compound 1 µM, first compound 0.000316 µM) was 102%, the viability, T/C (second compound 1 µM, first compound 0.001 µM) was 102% and the viability, T/C (second compound 1 µM, first compound 0.00316 µM) was 89.4%. The viability, T/C (second compound 1 µM, first compound 0.01 µM) was 98.8%, the viability, T/C [7] was 104% and the viability, T/C [8] was 76.5%. The viability, T/C (second compound 3.16 µM, first compound 0.000316 µM) was 90.7%, the viability, T/C (second compound 3.16 µM, first compound 0.001 µM) was 98% and the viability, T/C (second compound 3.16 µM, first compound 0.00316 µM) was 105%. For the same compound, the viability, T/C (second compound 3.16 µM, first compound 0.01 µM) was 94.7%, the viability, T/C [9] was 91.7% and the viability, T/C [10] was 89.5%. It also gave a viability, T/C (second compound 10 µM, first compound 0.000316 µM) of 103%, a viability, T/C (second compound 10 µM, first compound 0.001 µM) of 106% and a viability, T/C (second compound 10 µM, first compound 0.00316 µM) of 108%. The viability, T/C (second compound 10 µM, first compound 0.01 µM) was 95.2%, the viability, T/C [11] was 101% and the viability, T/C [12] was 99.6%.

Compound `COc1ccc([C@@H](O)c2cc(-c3ncnc4cc(N5CCOCC5)ccc34)c(F)cc2Cl)nn1` + Nc1ccc(C#CCN(C(=O)Cc2ncc(C(F)(F)F)cc2C(F)(F)F)c2ccc(F)cc2)nn1 has an IC50 (second compound 0.0316 µM) of 3.01 µM, an IC50 (second compound 0.1 µM) of 2.89 µM and an IC50 (second compound 0.316 µM) of 3.05 µM. The IC50 (second compound 1 µM) was 3.39 µM, the IC50 (second compound 3.16 µM) was 3.54 µM and the IC50 (second compound 10 µM) was 3.89 µM. For the same compound, the viability, T/C [1] was 89.7%, the viability, T/C [2] was 95.3% and the viability, T/C [13] was 82.5%. It also gave a viability, T/C [14] of 78.8%, a viability, T/C [15] of 48.1% and a viability, T/C [16] of 19.2%. For the same compound, the viability, T/C [3] was 95.2%, the viability, T/C [4] was 93.3% and the viability, T/C [17] was 91.1%. It also gave a viability, T/C [18] of 76.4%, a viability, T/C [19] of 47.9% and a viability, T/C [20] of 25.5%. The viability, T/C [5] was 114%, the viability, T/C [6] was 93.2% and the viability, T/C [21] was 92.5%. For the same compound, the viability, T/C [22] was 70.9%, the viability, T/C [23] was 50.2% and the viability, T/C [24] was 19.3%. The viability, T/C [7] was 99.5%, the viability, T/C [8] was 100% and the viability, T/C [25] was 96.7%. It also gave a viability, T/C [26] of 85.9%, a viability, T/C [27] of 51.8% and a viability, T/C [28] of 22.5%. For the same compound, the viability, T/C [9] was 101%, the viability, T/C [10] was 92.6% and the viability, T/C [29] was 90.5%. The viability, T/C [30] was 83.4%, the viability, T/C [31] was 52.2% and the viability, T/C [32] was 21.8%. For the same compound, the viability, T/C [11] was 116%, the viability, T/C [12] was 105% and the viability, T/C [33] was 104%. For the same compound, the viability, T/C [34] was 84%, the viability, T/C [35] was 54.9% and the viability, T/C [36] was 26%.

For `O=c1[nH]cc(F)c(=O)[nH]1` + COC1C(OC(N)=O)C(O)C(Oc2ccc3c(O)c(NC(=O)c4ccc(O)c(CC=C(C)C)c4)c(=O)oc3c2C)OC1(C)C, the IC50 (second compound 0.0316 µM) was > 10 µM, the IC50 (second compound 0.1 µM) was > 10 µM and the IC50 (second compound 0.316 µM) was > 10 µM. For the same compound, the IC50 (second compound 1 µM) was > 10 µM, the IC50 (second compound 3.16 µM) was > 10 µM and the IC50 (second compound 10 µM) was > 10 µM. For the same compound, the viability, T/C [1] was 101%, the viability, T/C [2] was 92.8% and the viability, T/C [13] was 108%. For the same compound, the viability, T/C [14] was 108%, the viability, T/C [15] was 91.3% and the viability, T/C [16] was 75.4%. It also gave a viability, T/C [3] of 109%, a viability, T/C [4] of 113% and a viability, T/C [17] of 88.5%. For the same compound, the viability, T/C [18] was 97.2%, the viability, T/C [19] was 93.6% and the viability, T/C [20] was 68.7%. The viability, T/C [5] was 92.6%, the viability, T/C [6] was 99.6% and the viability, T/C [21] was 99.8%. It also gave a viability, T/C [22] of 95.4%, a viability, T/C [23] of 86% and a viability, T/C [24] of 65.9%. For the same compound, the viability, T/C [7] was 104%, the viability, T/C [8] was 101% and the viability, T/C [25] was 91%. The viability, T/C [26] was 105%, the viability, T/C [27] was 98.5% and the viability, T/C [28] was 76.8%. The viability, T/C [9] was 102%, the viability, T/C [10] was 93.2% and the viability, T/C [29] was 91.2%. For the same compound, the viability, T/C [30] was 88.4%, the viability, T/C [31] was 92.5% and the viability, T/C [32] was 72.8%. It also gave a viability, T/C [11] of 106%, a viability, T/C [12] of 108% and a viability, T/C [33] of 101%. The viability, T/C [34] was 95.9%, the viability, T/C [35] was 88.2% and the viability, T/C [36] was 73%.
